{"source": "PubChem BioAssay AID1194", "about": "(EPA DSSTox, 2008)", "tested_on": "Salmonella typhimurium Ames mutagenicity, literature compiled", "assay": "DSSTox (CPDBAS) Carcinogenic Potency Database Salmonella Mutagenicity", "outline": "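Calls derive from published evaluations rather than new testing; overall \"positive\" in EPA Gene-Tox, or \"mutagenic\"/\"weakly mutagenic\" per Zeiger, counts as active.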", "note": "The source made the active and inactive calls.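 The calls were made as follows: active = chemicals rated mutagenic or weakly mutagenic in the Salmonella bacterial test by one literature review, or positive overall by another; inconclusive = no clear call, values can overlap the other calls; inactive = the rest.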", "data": [{"molecule": "NCCc1ccc(O)c(O)c1", "values": [{"measurement": "outcome", "value": "active"}]}, {"molecule": "CC(O)CCl", "note": "(stereo not drawn)", "values": [{"measurement": "outcome", "value": "active"}]}, {"molecule": "ClC(Cl)C(Cl)(Cl)Cl", "values": [{"measurement": "outcome", "value": "inactive"}]}, {"molecule": "CCCN(N=O)C(N)=O", "values": [{"measurement": "outcome", "value": "active"}]}, {"molecule": "Brc1c(Br)c(Br)c(Oc2c(Br)c(Br)c(Br)c(Br)c2Br)c(Br)c1Br", "values": [{"measurement": "outcome", "value": "inactive; active"}]}, {"molecule": "CCN(Cc1cccc(S(=O)(=O)[O-])c1)c1ccc(C(=C2C=CC(=[N+](C)C)C=C2)c2ccc(N(CC)Cc3cccc(S(=O)(=O)O)c3)cc2)cc1", "values": [{"measurement": "outcome", "value": "active"}]}, {"molecule": "Cc1cc(N=Nc2ccccc2C)ccc1N", "values": [{"measurement": "outcome", "value": "active"}]}, {"molecule": "O=[N+]([O-])c1ccc(-c2nc(N3CCOCC3)c3ccccc3n2)s1", "values": [{"measurement": "outcome", "value": "active"}]}, {"molecule": "Cc1cc(C)c(S(=O)(=O)O)cc1N=Nc1cc(S(=O)(=O)O)c2ccccc2c1O", "values": [{"measurement": "outcome", "value": "inactive; active"}]}, {"molecule": "CC(O)CO", "note": "(stereo not drawn)", "values": [{"measurement": "outcome", "value": "inactive"}]}, {"molecule": "CCN(CC)C(=O)/C(Cl)=C(\\C)OP(=O)(OC)OC", "values": [{"measurement": "outcome", "value": "active; inactive"}]}, {"molecule": "ClC1(Cl)C2(Cl)C3(Cl)C4(Cl)C(Cl)(Cl)C5(Cl)C3(Cl)C1(Cl)C5(Cl)C24Cl", "note": "(stereo not drawn)", "values": [{"measurement": "outcome", "value": "inactive"}]}, {"molecule": "CCOc1ccc(NC(C)=O)cc1[N+](=O)[O-]", "values": [{"measurement": "outcome", "value": "active; inactive"}]}, {"molecule": "CC(=O)N(O)c1ccc2c(c1)Cc1ccccc1-2", "values": [{"measurement": "outcome", "value": "active; inactive"}]}, {"molecule": "ClCC(Cl)(Cl)Cl", "values": [{"measurement": "outcome", "value": "inactive; active"}]}, {"molecule": "Cc1ccc(N=Nc2c(O)ccc3ccccc23)c([N+](=O)[O-])c1", "values": [{"measurement": "outcome", "value": "active; inactive"}]}, {"molecule": "Cc1ccc2c(c1N)C(=O)c1ccccc1C2=O", "values": [{"measurement": "outcome", "value": "active"}]}, {"molecule": "NC(=O)N(CCO)N=O", "values": [{"measurement": "outcome", "value": "active"}]}, {"molecule": "O=NN1CCC(O)C1", "note": "(stereo not drawn)", "values": [{"measurement": "outcome", "value": "active"}]}, {"molecule": "S=c1nc[nH]c2nc[nH]c12", "values": [{"measurement": "outcome", "value": "active"}]}, {"molecule": "O=CCCCC=O", "values": [{"measurement": "outcome", "value": "active"}]}, {"molecule": "Cc1ccc2ncccc2c1", "values": [{"measurement": "outcome", "value": "active"}]}, {"molecule": "Cc1cc(=O)[nH]c(=S)[nH]1", "values": [{"measurement": "outcome", "value": "inactive"}]}, {"molecule": "COc1ccccc1[N+](=O)[O-]", "values": [{"measurement": "outcome", "value": "active"}]}, {"molecule": "c1ccncc1", "values": [{"measurement": "outcome", "value": "inactive"}]}, {"molecule": "C=CCc1ccc(O)c(OC)c1", "values": [{"measurement": "outcome", "value": "inactive"}]}, {"molecule": "CC1=CC(=O)CC(C)(C)C1", "values": [{"measurement": "outcome", "value": "inactive; active"}]}, {"molecule": "Nc1ccc2c(c1)C(=O)c1ccccc1C2=O", "values": [{"measurement": "outcome", "value": "active"}]}, {"molecule": "OB(O)O", "values": [{"measurement": "outcome", "value": "inactive"}]}, {"molecule": "ClCC(Cl)CCl", "values": [{"measurement": "outcome", "value": "active; inactive"}]}, {"molecule": "BrC(Br)Br", "values": [{"measurement": "outcome", "value": "active"}]}, {"molecule": "O=C(O)CN(CC(=O)O)CC(=O)O", "values": [{"measurement": "outcome", "value": "inactive; active"}]}, {"molecule": "CN(C)C=O", "values": [{"measurement": "outcome", "value": "inactive"}]}, {"molecule": "FC(F)OC(F)(F)C(F)Cl", "note": "(stereo not drawn)", "values": [{"measurement": "outcome", "value": "inactive; active"}]}, {"molecule": "CC[C@H]1CN2CCc3cc(OC)c(OC)cc3[C@@H]2C[C@@H]1C[C@H]1NCCc2cc(OC)c(OC)cc21", "values": [{"measurement": "outcome", "value": "inactive; active"}]}, {"molecule": "Nc1cccc2c(N)cccc12", "values": [{"measurement": "outcome", "value": "active"}]}, {"molecule": "CC(=O)C(N=Nc1ccc(-c2ccc(N=NC(C(C)=O)C(=O)Nc3ccccc3)c(Cl)c2)cc1Cl)C(=O)Nc1ccccc1", "note": "(stereo not drawn)", "values": [{"measurement": "outcome", "value": "inactive"}]}, {"molecule": "O=S1OCC2C(CO1)C1(Cl)C(Cl)=C(Cl)C2(Cl)C1(Cl)Cl", "note": "(stereo not drawn)", "values": [{"measurement": "outcome", "value": "inactive; active"}]}, {"molecule": "COc1cc(-c2ccc(N=C=O)c(OC)c2)ccc1N=C=O", "values": [{"measurement": "outcome", "value": "active"}]}, {"molecule": "CC(C)Oc1ccccc1OC(=O)N(C)N=O", "values": [{"measurement": "outcome", "value": "active"}]}, {"molecule": "Oc1cccc(O)c1", "values": [{"measurement": "outcome", "value": "inactive"}]}, {"molecule": "NC(N)=NC(N)=NCCc1ccccc1", "values": [{"measurement": "outcome", "value": "inactive; active"}]}, {"molecule": "CCCN(CCC)S(=O)(=O)c1ccc(C(=O)O)cc1", "values": [{"measurement": "outcome", "value": "inactive; active"}]}, {"molecule": "CCCCOC(=O)COc1ccc(Cl)cc1Cl", "values": [{"measurement": "outcome", "value": "inactive; active"}]}, {"molecule": "OCCOCCO", "values": [{"measurement": "outcome", "value": "inactive; active"}]}, {"molecule": "CCO", "values": [{"measurement": "outcome", "value": "inactive; active"}]}, {"molecule": "O=NN1CCC(=O)NC1=O", "values": [{"measurement": "outcome", "value": "active; inactive"}]}, {"molecule": "CN(N=O)c1cccnc1", "values": [{"measurement": "outcome", "value": "inactive; active"}]}, {"molecule": "N=C1C=CC(=C(c2ccc(N)cc2)c2ccc(N)cc2)C=C1", "values": [{"measurement": "outcome", "value": "active"}]}, {"molecule": "O=C(O)CN(CCN(CC(=O)O)CC(=O)O)CC(=O)O", "values": [{"measurement": "outcome", "value": "inactive"}]}, {"molecule": "Nc1ccc(N)c(Cl)c1", "values": [{"measurement": "outcome", "value": "active; inactive"}]}, {"molecule": "C/C=C/c1ccc2c(c1)OCO2", "values": [{"measurement": "outcome", "value": "inactive; active"}]}, {"molecule": "CCOP(=S)(OCC)SC1OCCOC1SP(=S)(OCC)OCC", "note": "(stereo not drawn)", "values": [{"measurement": "outcome", "value": "active; inactive"}]}, {"molecule": "[CH3][Hg][Cl]", "values": [{"measurement": "outcome", "value": "inactive; active"}]}, {"molecule": "C=CC(=O)c1ccc2c(c1)OCO2", "values": [{"measurement": "outcome", "value": "inactive; active"}]}, {"molecule": "CN(C)c1ccc(N=NS(=O)(=O)O)cc1", "values": [{"measurement": "outcome", "value": "active; inactive"}]}, {"molecule": "Nc1c(Cl)cc([N+](=O)[O-])cc1Cl", "values": [{"measurement": "outcome", "value": "active"}]}, {"molecule": "COc1cc(/C=C/C(=O)CC(=O)/C=C/c2ccc(O)c(OC)c2)ccc1O", "values": [{"measurement": "outcome", "value": "inactive"}]}, {"molecule": "COc1c(Cl)c(Cl)c(Cl)c(Cl)c1Cl", "values": [{"measurement": "outcome", "value": "active; inactive"}]}, {"molecule": "O", "values": [{"measurement": "outcome", "value": "inactive"}]}, {"molecule": "CCCCCCN(N=O)C(N)=O", "values": [{"measurement": "outcome", "value": "active"}]}, {"molecule": "CC(=O)Nc1nc(-c2ccc([N+](=O)[O-])o2)cs1", "values": [{"measurement": "outcome", "value": "active; inactive"}]}, {"molecule": "CN(C)CCOC(C)(c1ccccc1)c1ccccn1", "note": "(stereo not drawn)", "values": [{"measurement": "outcome", "value": "inactive"}]}, {"molecule": "OCl", "values": [{"measurement": "outcome", "value": "inactive; active"}]}, {"molecule": "CCOc1ccc(NC(C)=O)cc1N", "values": [{"measurement": "outcome", "value": "active"}]}, {"molecule": "C=Cc1ccccc1", "values": [{"measurement": "outcome", "value": "active; inactive"}]}, {"molecule": "C[C@](N)(Cc1ccc(O)c(O)c1)C(=O)O", "values": [{"measurement": "outcome", "value": "inactive"}]}, {"molecule": "COS(C)(=O)=O", "values": [{"measurement": "outcome", "value": "active"}]}]}
